In experiment [1] the target is Cholinesterase (Mus musculus) (UniProt Q03311). The experiment in a line: Inhibition of cholinesterase in mouse skeletal muscle at 2 uM/ml. Type of experiment: tissue-based. The note with it: Muscle tissue.
Experiment [2] shares this target. The experiment in a line: Inhibition of cholinesterase in mouse skeletal muscle at 10 uM/ml. The note with it: Muscle tissue.

Molecules are shown by their SMILES. Calls of active or inactive are those of the source. The calls are words filed in the database; no cut-off is given here.

Chain of Cholinesterase (Mus musculus) (Q03311 whole entry): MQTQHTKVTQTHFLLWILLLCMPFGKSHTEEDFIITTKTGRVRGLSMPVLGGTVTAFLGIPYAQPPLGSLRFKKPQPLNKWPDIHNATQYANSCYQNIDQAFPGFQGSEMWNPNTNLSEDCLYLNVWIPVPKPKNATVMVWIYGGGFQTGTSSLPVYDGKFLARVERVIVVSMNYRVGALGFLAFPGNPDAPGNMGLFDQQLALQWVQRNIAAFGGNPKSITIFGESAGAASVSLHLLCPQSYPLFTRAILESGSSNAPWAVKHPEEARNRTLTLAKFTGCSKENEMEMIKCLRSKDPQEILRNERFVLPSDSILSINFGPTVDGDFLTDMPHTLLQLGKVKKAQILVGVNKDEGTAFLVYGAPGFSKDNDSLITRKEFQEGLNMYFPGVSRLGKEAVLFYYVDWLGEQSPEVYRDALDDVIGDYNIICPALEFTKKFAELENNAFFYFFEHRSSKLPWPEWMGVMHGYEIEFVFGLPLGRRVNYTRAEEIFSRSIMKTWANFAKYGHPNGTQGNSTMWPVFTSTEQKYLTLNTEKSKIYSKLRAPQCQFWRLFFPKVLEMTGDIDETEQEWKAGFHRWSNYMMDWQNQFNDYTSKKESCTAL

As for `C=C[C@@H]1[C@H]2C=C(C)C[C@]1(NC)c1ccc(=O)[nH]c1C2`, the result in experiment [1] was Active.
As for `C=C[C@@H]1[C@H]2C=C(C)C[C@]1(N(C)C)c1ccc(=O)[nH]c1C2`, in experiment [2], the result was inactive.
